Results: patent US10925840B2, “Use of fenoterol and fenoterol analogues in the treatment of glioblastomas and astrocytomas” (priority 2010, dated 2021)
Where “and” joins values, the source holds several entries; their conditions need not be identical. Equal values may be shown once. Where a name gives a salt, the structure may show the parent alone. Read-outs that look alike come from different tables or passages of the source.

Key:
[1] = target: human β2-AR (Homo sapiens (Human), UniProt P07550)
[2] = Brain and plasma distribution after single IV administration in rats; type: in vivo, male Sprague-Dawley rats
Description: An overview of the research study design for evaluating the brain-to-plasma distribution of [^3H]
(specific activity 57 Ci/mmol); vehicle was sterile saline, 0.9% sodium chloride, USP. Dose formulations were prepared on the day of the study. The amount of radioactivity in the dose formulation was determined by liquid scintillation. The study lasted for an hour and radioactivity levels in plasma and brain tissue were evaluated at the conclusion of the study. Approximately 5 mls of whole blood was collected. Blood samples were collected via cardiac puncture, transferred into a tube containing K3EDTA as the anticoagulant and kept on wet ice until processed to plasma. To generate plasma, samples were centrifuged within 15 minutes of collection at 2,500 RPM for 15 minutes at room temperature. Plasma was divided equally into three labeled cryovials and stored on ample dry ice until transferred to a freezer set at ≤−20° C. for storage until analysis. Duplicate aliquots were weighed and then combined with scintillation cocktail. The [^3H] radioactivity was determined on a liquid scintillation counter. Brain samples were snap frozen in liquid nitrogen and stored at ≤−70° C. until analysis. Whole brain tissue was homogenized and the weight of the homogenate was determined. Duplicate aliquots from the homogenate were weighed, solubilized and then combined with scintillation cocktail. The [^3H] radioactivity was determined on a liquid scintillation counter.

[3] = target: β1-AR (Rattus norvegicus (Rat), UniProt P18090); details: read-out: Ki β1; Ki ± SEM, n=3
Chain of β1-AR (P18090 whole entry): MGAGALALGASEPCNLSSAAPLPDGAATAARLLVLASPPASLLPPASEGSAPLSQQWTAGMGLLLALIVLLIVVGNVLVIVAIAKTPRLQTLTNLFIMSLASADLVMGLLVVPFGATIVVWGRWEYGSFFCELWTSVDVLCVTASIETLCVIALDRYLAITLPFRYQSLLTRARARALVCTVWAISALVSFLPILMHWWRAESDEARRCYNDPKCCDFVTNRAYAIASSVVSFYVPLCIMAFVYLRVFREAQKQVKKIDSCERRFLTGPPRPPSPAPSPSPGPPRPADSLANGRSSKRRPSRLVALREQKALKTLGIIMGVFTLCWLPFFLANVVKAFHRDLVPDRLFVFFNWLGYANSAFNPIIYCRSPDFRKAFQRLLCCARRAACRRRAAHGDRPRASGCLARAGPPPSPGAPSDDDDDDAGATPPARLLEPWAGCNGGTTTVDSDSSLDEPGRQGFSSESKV

[4] = IV 5 mg/kg
[5] = target: β2-AR; details: previously reported; cited from earlier work
[6] = system: rat cardiomyocyte; assay: Rat cardiomyocyte contractility model; type: cell-based
[7] = system: 1321N1 cells; assay: Inhibition of mitogenesis, [3H]-thymidine incorporation in 1321N1 cells; type: cell-based, human
[8] = system: 1321N1 cells; assay: Cell cycle distribution by flow cytometry in 1321N1 cells; details: 20 hours
[9] = system: U118 cells; details: [3H]-thymidine incorporation
[10] = rat, IV 5 mg/kg, 5 min, listed as [^3H]—(R,R)-methoxyfenoterol
[11] = rat, IV 5 mg/kg, 60 min, listed as [^3H]—(R,R)-methoxyfenoterol

For C[C@H](Cc1cccc2ccccc12)NC[C@@H](O)c1cc(O)cc(O)c1.O=C(O)/C=C/C(=O)O (racemic) [(S,R)-5, (S,R)-(+)-5-{1-hydroxy-2-[1-methyl-2-(1-naphthyl)ethylamino]ethyl}-1,3-benzenediol Fumarate], the “affinity for the β2-AR weaker than (R,R)-5” value [1] was 7 fold.
With [3H]COc1ccc(C[C@@H](C)NC[C@H](O)c2cc(O)cc(O)c2)cc1 [[^3H]-(R,R)-methoxyfenoterol, [^3H]—(R,R)-methoxyfenoterol chloride] the “decrease of plasma level” value ([2]; from 5 minutes to 60 minutes) was 62%, the “passage through the blood brain barrier” value ([2]; rat, IV) was “pass through the blood brain barrier” and the “Brain level, Mean” value ([2]; rat, IV 5 mg/kg, 5 min) was 0.92 μg-equiv/g. For the same compound, the “Percent of Dose in Brain, Mean” value ([2]; rat, IV 5 mg/kg, 5 min) was 0.14%, the “Plasma level, Mean” value ([2]; rat, IV 5 mg/kg, 5 min) was 3.25 μg-equiv/ml and the “Brain level, Mean” value [2, 10] was 0.92±0.10 μg-equiv/g. For the same compound, the “Plasma level, Mean” value [2, 10] was 3.25±0.15 μg-equiv/ml, the “Brain level, Mean” value ([2]; rat, IV 5 mg/kg, 15 min) was 0.80 μg-equiv/g and the “Percent of Dose in Brain, Mean” value ([2]; rat, IV 5 mg/kg, 15 min) was 0.12%. For the same compound, the “Plasma level, Mean” value ([2]; rat, IV 5 mg/kg, 15 min) was 1.79 μg-equiv/ml, the “Brain level, Mean” value ([2]; rat, IV 5 mg/kg, 30 min) was 0.72 μg-equiv/g and the “Percent of Dose in Brain, Mean” value ([2]; rat, IV 5 mg/kg, 30 min) was 0.11%. The “Plasma level, Mean” value ([2]; rat, IV 5 mg/kg, 30 min) was 1.53 μg-equiv/ml, the “Brain level, Mean” value ([2]; rat, IV 5 mg/kg, 60 min) was 0.70 μg-equiv/g and the “Percent of Dose in Brain, Mean” value ([2]; rat, IV 5 mg/kg, 60 min) was 0.11%. For the same compound, the “Plasma level, Mean” value ([2]; rat, IV 5 mg/kg, 60 min) was 1.24 μg-equiv/ml, the “Brain level, Mean” value [2, 11] was 0.70±0.37 μg-equiv/g and the “Plasma level, Mean” value [2, 11] was 1.24±0.43 μg-equiv/ml. The “percent dose found in the brain, any given animal” value ([2]; rat, IV 5 mg/kg, over 60 minutes) was “no more than 0.17%”.
For Oc1cc(O)cc([C@H](O)CNCCc2ccccc2)c1 [(S)-7, (S)-(+)-5-(1-hydroxy-2-phenethylaminoethyl)-1,3-benzenediol Fumarate], the Ki [3] was 52.2 ± 3.01 µM.
In the case of COc1ccc(C[C@@H](C)NC[C@H](O)c2cc(O)cc(O)c2)cc1.O=C(O)/C=C/C(=O)O [(R,R)-2, (R,R)-(−)-1-p-Methoxyphenyl-2-(β-3′,5′-dihydroxy-phenyl-β-oxy)ethylamino-propane Fumarate], the “plasma concentration, individual rat” value ([4]; 300 min, listed as (R,R)-methoxyfenoterol) is reported as 0.06 ug/ml and 0.07 ug/ml (3×) and 0.09 ug/ml, the “systemic exposure (AUC) compared to (R,R)-fenoterol” value ([4]; rat) is reported as “significantly higher” and the B ([4]; rat, two-compartment open model) is reported as 0.3900 µg/mL.
In the case of NCC(O)c1ccc(O)c2[nH]c(=O)ccc12 (stereo not shown) [Compound 51], the “Ki β1/Ki β2 ratio” value [5] is given as 1.3.
In the case of (R,R)-TA-2005 [Compound 49], the Ki [5] is listed as 12 nM and the “Ki β1/Ki β2 ratio” value [5] is listed as 53.
For CC(C)NCC(O)c1ccc(O)c2[nH]c(=O)ccc12 (stereo not shown) [Compound 50], the “Ki β1/Ki β2 ratio” value [5] is listed as 1.7.
C[C@@H](Cc1ccc(O)cc1)NC[C@@H](O)c1cc(O)cc(O)c1 (racemic) [(S,S)-1, (S,S)-(±)-Fenoterol] showed an EC50 [6] of 55 µM.
With Cc1ccc(OCC(O)C(C)NC(C)C)c2c1CCC2 (stereo not shown) [ICI 118-551] the “shift of the (R,R)-fenoterol dose response curve” value ([7]; 1 nM and 3 nM) was “parallel rightward shift”, the “pA2 against inhibitory effect of (R,R)-fenoterol” value ([7]; [3H]-thymidine incorporation, 1321N1 cells) was 8.9 and the “slope of competitive inhibition” value ([7]; [3H]-thymidine incorporation, versus (R,R)-fenoterol) was −1.3±0.3.
With C[C@@H](Cc1cccc2ccccc12)NC[C@H](O)c1cc(O)cc(O)c1.O=C(O)/C=C/C(=O)O [(R,S)-5, (R,S)-(−)-5-{1-hydroxy-2-[1-methyl-2-(1-naphthyl)ethylamino]ethyl}-1,3-benzenediol Fumarate] the “plasma concentration, individual rat” value ([4]; 240 min, listed as (R,S)-naphthylfenoterol, Fumarate) was 0.11 ug/ml (3×) and 0.13 ug/ml (2×), the “plasma concentration, individual rat” value ([4]; 300 min, listed as (R,S)-naphthylfenoterol, Fumarate) was 0.10 ug/ml (2×) and 0.11 ug/ml (2×) and 0.12 ug/ml and the “systemic exposure (AUC) compared to (R,R)-fenoterol” value ([4]; rat) was “significantly higher”. For the same compound, the “plasma concentration, Average” value ([4]; rat, 15 min) was 0.68 µg/mL, the “plasma concentration, Average” value ([4]; rat, 30 min) was 0.43 µg/mL and the “plasma concentration, Average” value ([4]; rat, 60 min) was 0.34 µg/mL. For the same compound, the “plasma concentration, Average” value ([4]; rat, 120 min) was 0.24 µg/mL, the “plasma concentration, Average” value ([4]; rat, 240 min) was 0.12 µg/mL and the “plasma concentration, Average” value ([4]; rat, 300 min) was 0.11 µg/mL. For the same compound, the “plasma concentration, Average” value ([4]; rat, 360 min) was 0.09 µg/mL.
In the case of O=C(O)/C=C/C(=O)O.Oc1cc(O)cc([C@@H](O)CNCCc2ccccc2)c1 [(R)-7, (R)-(−)-5-(1-Hydroxy-2-phenethylaminoethyl)-1,3-benzenediol fumarate], the Ki [3] is reported as 42.5 ± 3.47 µM and the “Kiβ2 value higher than (R,S)-3” value ([1]; relative to (R,S)-3) is reported as 32%.
With C[C@H](Cc1ccc(O)cc1)NC[C@H](O)c1cc(O)cc(O)c1 [(R,R)-1, (R,R)-(−)-Fenoterol] the “% Phase Distribution G2” value ([8]; 0.1 nM) was 1.8%, the “% Phase Distribution G1” value ([8]; 10.0 nM) was 76.0% and the “% Phase Distribution G2” value ([8]; 10.0 nM) was 2.1%. For the same compound, the “% Phase Distribution G2” value ([8]; 1000 nM) was 0.7% and the “IC50 higher than the value calculated in 1321N1 cells” value [9] was 50 fold.
